Laboratory results taken from PubChem BioAssay AID2060486 (Molecular Pharmacology Branch, DTP, NCI, 2025).

Tested on: IGROV1 complex spheroids (HUVEC, MSC), viability % test/control
Experiment: Anticancer human tumor IGROV1 cell line growth inhibition [GQUAD];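 also: spheroids exposed to compounds for 7 days before readout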;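 as to viability, T/C: 100% = DMSO vehicle control viability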
Settings: for IC50: curve of first compound; for viability, T/C: stronger effect = lower value
Procedure, shortened: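 Viability of tumor cells grown as complex spheroids with endothelial and stromal cells, exposed to drug combinations. Top concentration at or near clinical Cmax (else 10 microM), diluted in half-log increments.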

[1] = second compound 0.0316 µM, first compound 0.0316 µM
[2] = second compound 0.0316 µM, first compound 0.316 µM
[3] = second compound 0.1 µM, first compound 0.0316 µM
[4] = second compound 0.1 µM, first compound 0.316 µM
[5] = second compound 0.316 µM, first compound 0.0316 µM
[6] = second compound 0.316 µM, first compound 0.316 µM
[7] = second compound 1 µM, first compound 0.0316 µM
[8] = second compound 1 µM, first compound 0.316 µM
[9] = second compound 3.16 µM, first compound 0.0316 µM
[10] = second compound 3.16 µM, first compound 0.316 µM
[11] = second compound 10 µM, first compound 0.0316 µM
[12] = second compound 10 µM, first compound 0.316 µM
[13] = second compound 0.0316 µM, first compound 0.1 µM
[14] = second compound 0.0316 µM, first compound 1 µM
[15] = second compound 0.0316 µM, first compound 3.16 µM
[16] = second compound 0.0316 µM, first compound 10 µM
[17] = second compound 0.1 µM, first compound 0.1 µM
[18] = second compound 0.1 µM, first compound 1 µM
[19] = second compound 0.1 µM, first compound 3.16 µM
[20] = second compound 0.1 µM, first compound 10 µM
[21] = second compound 0.316 µM, first compound 0.1 µM
[22] = second compound 0.316 µM, first compound 1 µM
[23] = second compound 0.316 µM, first compound 3.16 µM
[24] = second compound 0.316 µM, first compound 10 µM
[25] = second compound 1 µM, first compound 0.1 µM
[26] = second compound 1 µM, first compound 1 µM
[27] = second compound 1 µM, first compound 3.16 µM
[28] = second compound 1 µM, first compound 10 µM
[29] = second compound 3.16 µM, first compound 0.1 µM
[30] = second compound 3.16 µM, first compound 1 µM
[31] = second compound 3.16 µM, first compound 3.16 µM
[32] = second compound 3.16 µM, first compound 10 µM
[33] = second compound 10 µM, first compound 0.1 µM
[34] = second compound 10 µM, first compound 1 µM
[35] = second compound 10 µM, first compound 3.16 µM
[36] = second compound 10 µM, first compound 10 µM

Cn1ncnc1[C@H]1c2n[nH]c(=O)c3cc(F)cc(c23)N[C@@H]1c1ccc(F)cc1 + Cc1cnc(CNC(=O)c2c(=O)c3ccc(N4CCCN(C)CC4)nc3n3c2sc2ccccc23)cn1
IC50 (second compound 0.0316 µM): 21.9 nM | IC50 (second compound 0.1 µM): < 0.999 nM | IC50 (second compound 0.316 µM): < 0.999 nM | IC50 (second compound 1 µM): < 0.999 nM | IC50 (second compound 3.16 µM): < 0.999 nM | IC50 (second compound 10 µM): < 0.999 nM | viability, T/C (second compound 0.0316 µM, first compound 0.000999 µM): 73.9% | viability, T/C (second compound 0.0316 µM, first compound 0.00316 µM): 67.1% | viability, T/C (second compound 0.0316 µM, first compound 0.00999 µM): 60% | viability, T/C [1]: 41% | viability, T/C (second compound 0.0316 µM, first compound 0.0999 µM): 38.5% | viability, T/C [2]: 19.3% | viability, T/C (second compound 0.1 µM, first compound 0.000999 µM): 44.2% | viability, T/C (second compound 0.1 µM, first compound 0.00316 µM): 34.8% | viability, T/C (second compound 0.1 µM, first compound 0.00999 µM): 30.9% | viability, T/C [3]: 21.6% | viability, T/C (second compound 0.1 µM, first compound 0.0999 µM): 21.6% | viability, T/C [4]: 19% | viability, T/C (second compound 0.316 µM, first compound 0.000999 µM): 29.5% | viability, T/C (second compound 0.316 µM, first compound 0.00316 µM): 18.9% | viability, T/C (second compound 0.316 µM, first compound 0.00999 µM): 20.2% | viability, T/C [5]: 16.8% | viability, T/C (second compound 0.316 µM, first compound 0.0999 µM): 16.5% | viability, T/C [6]: 12.4% | viability, T/C (second compound 1 µM, first compound 0.000999 µM): 17.3% | viability, T/C (second compound 1 µM, first compound 0.00316 µM): 11% | viability, T/C (second compound 1 µM, first compound 0.00999 µM): 14.8% | viability, T/C [7]: 14% | viability, T/C (second compound 1 µM, first compound 0.0999 µM): 12.7% | viability, T/C [8]: 12.1% | viability, T/C (second compound 3.16 µM, first compound 0.000999 µM): 11.3% | viability, T/C (second compound 3.16 µM, first compound 0.00316 µM): 8.42% | viability, T/C (second compound 3.16 µM, first compound 0.00999 µM): 10.4% | viability, T/C [9]: 13.2% | viability, T/C (second compound 3.16 µM, first compound 0.0999 µM): 9.17% | viability, T/C [10]: 7.53% | viability, T/C (second compound 10 µM, first compound 0.000999 µM): 8.16% | viability, T/C (second compound 10 µM, first compound 0.00316 µM): 10% | viability, T/C (second compound 10 µM, first compound 0.00999 µM): 10.5% | viability, T/C [11]: 9.96% | viability, T/C (second compound 10 µM, first compound 0.0999 µM): 10.5% | viability, T/C [12]: 8.19%

C=CC(=O)N1CCN(c2nc(=O)n(-c3c(C)ccnc3C(C)C)c3nc(-c4c(O)cccc4F)c(F)cc23)C(C)C1 (stereo unspecified) + CN(C)c1ccc(Nc2c3ccc(NC(=O)CCN4CCCC4)cc3nc3cc(NC(=O)CCN4CCCC4)ccc23)cc1
IC50 (second compound 0.0316 µM): > 10000 nM | IC50 (second compound 0.1 µM): > 10000 nM | IC50 (second compound 0.316 µM): > 10000 nM | IC50 (second compound 1 µM): > 10000 nM | IC50 (second compound 3.16 µM): > 10000 nM | IC50 (second compound 10 µM): 4880 nM | viability, T/C [1]: 99.1% | viability, T/C [13]: 100% | viability, T/C [2]: 106% | viability, T/C [14]: 90.7% | viability, T/C [15]: 104% | viability, T/C [16]: 90.5% | viability, T/C [3]: 99.7% | viability, T/C [17]: 90.3% | viability, T/C [4]: 96.3% | viability, T/C [18]: 88.5% | viability, T/C [19]: 111% | viability, T/C [20]: 104% | viability, T/C [5]: 91.5% | viability, T/C [21]: 75.2% | viability, T/C [6]: 88.4% | viability, T/C [22]: 83.3% | viability, T/C [23]: 111% | viability, T/C [24]: 83.3% | viability, T/C [7]: 90.1% | viability, T/C [25]: 70.3% | viability, T/C [8]: 93.7% | viability, T/C [26]: 108% | viability, T/C [27]: 106% | viability, T/C [28]: 95.1% | viability, T/C [9]: 86% | viability, T/C [29]: 86.4% | viability, T/C [10]: 101% | viability, T/C [30]: 99.5% | viability, T/C [31]: 99.5% | viability, T/C [32]: 77.8% | viability, T/C [11]: 62.6% | viability, T/C [33]: 58.7% | viability, T/C [12]: 67.2% | viability, T/C [34]: 71.8% | viability, T/C [35]: 64.1% | viability, T/C [36]: 26.3%

O=C(c1cc(Cc2n[nH]c(=O)c3ccccc23)ccc1F)N1CCN(C(=O)C2CC2)CC1 + Cc1cnc(CNC(=O)c2c(=O)c3ccc(N4CCCN(C)CC4)nc3n3c2sc2ccccc23)cn1
IC50 (second compound 0.0316 µM): 1610 nM | IC50 (second compound 0.1 µM): < 31.6 nM | IC50 (second compound 0.316 µM): < 31.6 nM | IC50 (second compound 1 µM): < 31.6 nM | IC50 (second compound 3.16 µM): < 31.6 nM | IC50 (second compound 10 µM): < 31.6 nM | viability, T/C [1]: 58.6% | viability, T/C [13]: 73% | viability, T/C [2]: 53.6% | viability, T/C [14]: 55.8% | viability, T/C [15]: 43.5% | viability, T/C [16]: 20.8% | viability, T/C [3]: 42.1% | viability, T/C [17]: 39.9% | viability, T/C [4]: 34% | viability, T/C [18]: 27.9% | viability, T/C [19]: 24.2% | viability, T/C [20]: 17.8% | viability, T/C [5]: 22.4% | viability, T/C [21]: 27.7% | viability, T/C [6]: 24% | viability, T/C [22]: 23.5% | viability, T/C [23]: 16.9% | viability, T/C [24]: 18.1% | viability, T/C [7]: 14.4% | viability, T/C [25]: 17.3% | viability, T/C [8]: 18.9% | viability, T/C [26]: 16.9% | viability, T/C [27]: 16% | viability, T/C [28]: 12.9% | viability, T/C [9]: 9.91% | viability, T/C [29]: 10.6% | viability, T/C [10]: 10.1% | viability, T/C [30]: 10.6% | viability, T/C [31]: 11.1% | viability, T/C [32]: 10.5% | viability, T/C [11]: 8.62% | viability, T/C [33]: 11.4% | viability, T/C [12]: 9.01% | viability, T/C [34]: 8.13% | viability, T/C [35]: 9.75% | viability, T/C [36]: 9.07%
